From patent US8883720B2, “Template-fixed beta-hairpin peptidomimetics with CXCR4 antagonizing activity” (Polyphor AG, priority 2008, dated 2014)
Numbered stars: 1 amine (or outer) side, 2 acyl side, 3 side chain; on linkers, the order of the positions; unused ones are H or OH. Bridge positions count the residues as written; N and C are the ends. Square brackets hold non-standard residues; d marks the D form. Peptide text beside a SMILES is read from it. Abu(3S-NH2) = C[C@H](N)[C@H](N)C(=O)O; X1 = NCC[C@H](O[*:1])C(=O)[*:2]; Lac = C[C@H](O)C(=O)O

What was measured:
human CXCR4 = target: T1, human CXCR4 (Homo sapiens, UniProt P61073); assay: Ca2+-assay: CXCR4-antagonizing activity (SDF-1 induced calcium mobilization); type: cell-based; settings: mouse pre-B cell line 300-19 stably transfected with human CXCR4, read-out: IC50% [nM] ± SD, CXCR4 receptor
T1 construct: expressed in transfected cells; host or cells: mouse pre-B cell line 300-19
Excerpt: 2.3. Ca^2+-Assay: CXCR4-Antagonizing Activity of the Depsipeptides
Increases in intracellular calcium were monitored using a Flexstation 384 (Molecular Devices, Sunnyvale, Calif.) to assay the depsipeptides for CXCR4 antagonism in a mouse pre-B cell line 300-19 stably transfected with human CXCR4 (E. Oberlin, A. Amara, F. Bachelerie, C. Bessia, J.-L. Virelizier, F. Arenzana-Seisdedos, O. Schwartz, J.-M. Heard, I. Clark-Lewis, D. F. Legler, M. Loetscher, M. Baggiolini, B. Moser, Nature 1996, 382, 833-835; M. Loetscher, T. Geiser, T. O'Reilly, R. Zwalen, M. Baggiolini, B. Moser, J. Biol. Chem. 1994, 269, 232-237; M. D'Apuuo, A. Rolink, M. Loetscher, J. A. Hoxie, I. Clark-Lewis, F. Melchors, M. Baggiolini, B. Moser, Eur. J. Immunol. 1997, 27, 1788-1793). The cells were batch loaded with the Calcium 4 Assay kit (Molecular Devices) in assay buffer (Hanks Balanced salt solution [HBSS], 20 mM HEPES, pH 7.4, 0.1% BSA) for 1 h at room temperature and labeled cells were dispensed into black well assays plates (Costar No. 3603). Calcium mobilization induced by stromal-derived factor-1 (SDF-1) was measured in the Flexstation 384 (excitation: 485 nm; emission: 525 nm) for 90 seconds. Antagonist activity of depsipeptides was determined by spiking the cells with compounds prior to SDF-1 addition. Dose response curves (compound concentration versus % maximum response for SDF-1) were determined for each antagonist and IC50 values were calculated by fitting the data to a four parameter logistic equation using SoftmaxPro 4.8 (Molecular Devices).

in vitro = type: cell-based
Experimental: The cytotoxicity of the depsipeptides to HELA cells (Acc57) and COS-7 cells (CRL-1651) was determined using the MTT reduction assay (T. Mossman, J. Immunol. Meth. 1983, 65, 55-63; M. V. Berridge, A. S. Tan, Arch. Biochem. Biophys. 1993, 303, 474-482). Briefly, the method was as follows: 7000 HELA cells/well and 4500 COS-7 cells/well were seeded and grown in 96-well microtiter plates for 24 h at 37° C. at 5% CO2. Thereafter, time zero (Tz) was determined by MTT reduction (see below). The supernatant of the remaining wells was discarded, and fresh medium and compounds in serial dilutions (12.5, 25 and 50 μM, triplicates) were pipetted into the wells. After incubation of the cells for 48 h at 37° C. at 5% CO2 the supernatant was discarded again and 100 μL MTT reagent (0.5 mg/mL in RPMI1640 and DMEM, respectively)/well was added. Following incubation at 37° C. for 2 h the media were aspirated and the cells were spiked (100 μL isopropanol/well). The absorbance of the solubilized formazan was measured at 595 nm (OD595peptide). For each concentration averages were calculated from triplicates. The percentage of growth was calculated as follows: (OD595peptide-OD595Tz-OD595Empty well)/(OD595Tz-OD595Empty well)×100%. The GI50 (Growth Inhibition) concentrations were calculated for each depsipeptide by using a trend line function for the concentrations (50, 25, 12.5 and 0 μM), the corresponding percentages and the value 50, (=TREND (C50:C0, %50:%0, 50).

[1] = tested on: human red blood cells (hRBC); type: cell-based; settings: red cells of human, 1 h
Experimental: 2.5. Hemolysis The depsipeptides were tested for their hemolytic activity against human red blood cells (hRBC). Fresh hRBC were washed three times with phosphate buffered saline (PBS) and centrifuged for 10 min at 2000×g. Compounds (100 μM) were incubated with 20% hRBC (v/v) for 1 h at 37° C. The final erythrocyte concentration was approximately 0.9×10^9 cells/mL. A value of 0% and 100% cell lyses, respectively, was determined by incubation of hRBC in the presence of PBS alone and 0.1% Triton X-100 in H2O, respectively. The samples were centrifuged, the supernatants were 20-fold diluted in PBS buffer and the optical densities (OD) were measured at 540 nm. The 100% lyses value (OD540H2O) gave an OD540 of approximately 1.3-1.8. Percent hemolysis was calculated as follows: (OD540peptide/OD540H2O)×100%.

[2] = Plasma stability, human plasma; type: in vitro ADME; settings: 37° C., sampled up to 240 min, read-out: Plasmastability human pl. T1/2
Experimental: (§1) The stability of the depsipeptides in human and mouse plasma was determined by applying the following method: 315 μL/deep well of freshly thawed human plasma (Basler Blutspende-dienst) and mouse plasma (Harlan Sera-Lab, UK), respectively, were spiked with 35 μL/well of compound in PBS (100 μM, triplicate) and incubated at 37° C. At t=0, 15, 30, 60, 120 and 240 min aliquots of 50 μL were transferred to filtration plate wells containing 150 μL/well of acetonitrile. Following shaking for 2 min the occurred suspensions were filtrated by vacuum and finally, 100 μL of each filtrate were transferred to a propylene microtiter plate, and analyzed by LC/MS as follows: Column: Waters, XBridge C18, mobile phases: (A) water+0.1% formic acid and (B) acetonitrile/water, 95/5 (v/v)+0.1% formic acid, gradient: 5%-100% (B) in 2 minutes, electrospray ionization, MRM detection (triple quadrupole). The peak areas were determined and triplicate values are averaged. The stability is expressed in percent of the initial value at t=0. (tx/t0×100). By using the TREND function of EXCEL (Microsoft Office 2003) T1/2 were determined.

[3] = Plasma stability, mouse plasma; type: in vitro ADME; settings: 37° C., sampled up to 240 min, read-out: Plasmastability mouse pl. T1/2
Experimental: as §1

T1 sequence (P61073 whole entry): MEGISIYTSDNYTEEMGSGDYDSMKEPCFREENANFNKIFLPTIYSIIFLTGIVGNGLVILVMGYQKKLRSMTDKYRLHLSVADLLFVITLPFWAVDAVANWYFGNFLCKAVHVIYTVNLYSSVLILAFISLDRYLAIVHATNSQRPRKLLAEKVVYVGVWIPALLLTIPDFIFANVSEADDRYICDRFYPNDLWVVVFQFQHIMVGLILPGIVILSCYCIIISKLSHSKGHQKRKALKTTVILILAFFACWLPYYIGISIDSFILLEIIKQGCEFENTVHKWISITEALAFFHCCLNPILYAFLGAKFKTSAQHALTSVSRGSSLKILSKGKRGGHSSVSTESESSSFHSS

SMILES	IC50 (human CXCR4) [nM]	GI50 at 48 h (in vitro; African green monkey) [µM]	GI50 at 48 h (in vitro; human) [µM]	Hemolysis at 100 μM [1] [%]	half-life at 10 μM [2] [min]	half-life at 10 μM [3] [min]
C[C@@H]1NC(=O)[C@H](CCCNC(=N)N)NC(=O)[C@@H]2CSSC[C@H](NC(=O)[C@H](Cc3ccc(O)cc3)NC(=O)[C@H](CCCNC(=N)N)NC(=O)[C@H]([C@H](C)N)NC(=O)[C@H]3CCCN3C1=O)C(=O)N[C@@H](Cc1ccc(O)cc1)C(=O)N[C@@H](CCC(N)=O)C(=O)N[C@@H](CCCCN)C(=O)N1CCC[C@@H]1C(=O)N1CCC[C@H]1C(=O)N[C@@H](Cc1ccc(O)cc1)C(=O)N[C@@H](Cc1c[nH]cn1)C(=O)O[C@@H](C)C(=O)N2 [Example 9] (cyclo(YH[Lac]CRA[dP][Abu(3S-NH2)]RYCYQK[dP]P); disulfide 4-11)	20.8 ± 8.3	> 50	> 50	0.4	85	74
C[C@@H]1NC(=O)[C@H](Cc2c[nH]cn2)NC(=O)[C@H](Cc2ccc(O)cc2)NC(=O)[C@@H]2CCCN2C(=O)[C@H]2CCCN2C(=O)[C@H](CCN)OC(=O)[C@@H](CCC(N)=O)NC(=O)[C@H](Cc2ccc(O)cc2)NC(=O)[C@@H]2CSSC[C@H](NC1=O)C(=O)N[C@@H](CCCNC(=N)N)C(=O)N[C@@H](C)C(=O)N1CCC[C@@H]1C(=O)N[C@@H]([C@H](C)N)C(=O)N[C@@H](CCCNC(=N)N)C(=O)N[C@@H](Cc1ccc(O)cc1)C(=O)N2 [Example 10] (cyclo(YHACRA[dP][Abu(3S-NH2)]RYCY[dQ][X1][dP]P); disulfide 4-11)	16.6 ± 1.5	> 50	> 50	0.3	5.1	5.3
